Results from patent publication US20200399264A1, “4-SUBSTITUTED-2-THIAZOLE AMIDES AS ANTIVIRAL AGENTS” (Southern Research Institute, priority 2019, published 2020).

How the values were obtained:
[1] = cell cytotoxicity in a cell viability assay (CC50); format: cell-based; settings: concentration required for 50% cell survival
Source text: As used herein, “CC50,” is intended to refer to the cell cytotoxicity to the concentration of a substance (e.g., a compound or a drug) that is required for 50% cell survival in a cell viability assay in vitro.

[2] = system: CHIKV; assay: antiviral activity against CHIKV (VTR and EC90); format: cell-based; settings: Chikungunya virus; for log reduction at 10 µM: read-out: VTR @ 10 μM (logs)
Source text: As used herein, “EC90,” is intended to refer to the concentration of a substance (e.g., a compound or a drug) that is required for 90% agonism of a biological process, or component of a process, including a protein, subunit, organelle, ribonucleoprotein, etc. In one aspect, an EC90 can refer to the concentration of a substance that is required for 90% agonism in vivo, as further defined elsewhere herein. In a further aspect, […].

Structure (SMILES)	CC50 [1] [µM]	EC90 [2] [µM]	log reduction at 10 µM [2]
CSc1ncccc1C(=O)Nc1nc(-c2cccc(Nc3ccc(CN)cc3)c2)cs1 [Compound 45, N-(4-(3-((4-(aminomethyl)phenyl)amino)phenyl)thiazol-2-yl)-2-(methylthio)nicotinamide]	12.8	5.8	1.23
CSc1ncccc1C(=O)Nc1nc(-c2cccc(-c3ccc(C#N)cc3)n2)cs1 [Compound 13, N-(4-(6-(4-Cyanophenyl)pyridin-2-yl)thiazol-2-yl)-2-(methylthio)nicotinamide]	16.3		2.72
CSc1ncccc1C(=O)Nc1nc(-c2cccc(Nc3cccc(C(F)(F)F)c3)c2)cs1 [Compound 40, 2-(Methylthio)-N-(4-(3-((3-(trifluoromethyl)phenyl)amino)phenyl)thiazol-2-yl)nicotinamide]	> 40	3.1	5.36
CSc1ncccc1C(=O)Nc1nc(-c2cccc(Oc3ccccc3)c2)cs1 [Compound 36, 2-methylsulfanyl-N-[4-(3-phenoxyphenyl)thiazol-2-yl]pyridine-3-carboxamide]	> 40		4.87
CC(C)(C)c1ccc(C(=O)Nc2nc(-c3cccc(N4CCNCC4)c3)cs2)cc1 [Compound 30, 4-(Tert-Butyl)-N-(4-(3-(piperazin-1-yl)phenyl)thiazol-2-yl)benzamide]	4.1		5.57
CSc1ncccc1C(=O)Nc1nc(-c2cccc(-c3ccccc3)c2)cs1 [Compound 1, N-(4-([1,1′-Biphenyl]-3-yl)thiazol-2-yl)-2-(methylthio)nicotinamide]	> 40	0.38	7.82
CSc1ncccc1C(=O)Nc1nc(-c2cccc(N3CCN(C(C)=O)CC3)c2)cs1 [Compound 32, N-(4-(3-(4-acetylpiperazin-1-yl)phenyl)thiazol-2-yl)-2-(methylthio)nicotinamide]	> 40		< 1
CSc1ncccc1C(=O)Nc1nc(-c2cc(-c3ccc(C#N)cc3)ccc2F)cs1 [Compound 17, N-(4-(4′-Cyano-4-fluoro-[1,1′-biphenyl]-3-yl)thiazol-2-yl)-2-(methylthio)nicotinamide]	25	0.34	5.75
N#Cc1ccc(Nc2cccc(-c3csc(NC(=O)C45CC(C(=O)O)(C4)C5)n3)c2)cc1 [Compound 42, 3-((4-(3-((4-Cyanophenyl)amino)phenyl)thiazol-2-yl)carbamoyl)bicyclo[1.1.1]pentane-1-carboxylic Acid]	> 40	> 10	0
COc1cc(Nc2cccc(-c3csc(NC(=O)c4cccnc4SC)n3)c2)ccc1C#N [Compound 46, N-(4-(3-((4-yano-3-methoxyphenyl)amino)phenyl)thiazol-2-yl)-2-(methylthio)nicotinamide]	> 40	0.34	5.06
CC(C)(C#N)c1ccc(C(=O)Nc2nc(-c3cccc(Nc4ccc(C#N)cc4)c3)cs2)cc1 [Compound 44, N-(4-(3-((4-cyanophenyl)amino)phenyl)thiazol-2-yl)-4-(2-cyanopropan-2-yl)benzamide]	> 40	0.98	2.65
CSc1ncccc1C(=O)Nc1nc(-c2cccc(N3CCOCC3)c2)cs1 [Compound 34, 2-(Methylthio)-N-(4-(3-morpholinophenyl)thiazol-2-yl)nicotinamide]	> 40		1.88
COC(=O)C12CC(C(=O)Nc3nc(-c4cccc(Nc5ccc(C#N)cc5)c4)cs3)(C1)C2 [Compound 43, Methyl 3-((4-(3-((4-cyanophenyl)amino)phenyl)thiazol-2-yl)carbamoyl)bicyclo[1.1.1]pentane-1-carboxylate]	13	10.1	0.74
CSc1ncccc1C(=O)Nc1nc(-c2cccc(-n3ccnc3)c2)cs1 [Compound 29, N-(4-(3-(1H-imidazol-1-yl)phenyl)thiazol-2-yl)-2-(methylthio)nicotinamide]	> 40	0.27	1.39
CSc1ncccc1C(=O)Nc1nc(-c2cccc(Nc3cccc(C#N)c3)c2)cs1 [Compound 38, N-(4-(3-((3-Cyanophenyl)amino)phenyl)thiazol-2-yl)-2-(methylthio)nicotinamide]	> 40	0.15	5.72
CSc1ncccc1C(=O)Nc1nc(-c2cccc(-c3ccc(F)nc3)c2)cs1 [Compound 16, N-(4-(3-(6-Fluoropyridin-3-yl)phenyl)thiazol-2-yl)-2-(methylthio)nicotinamide]	> 30	0.33	6.09

Structure (SMILES)	CC50 [1] [µM]	EC90 [2] [µM]	log reduction at 10 µM [2]
COC(=O)c1ccc(-c2cccc(-c3csc(NC(=O)c4cccnc4SC)n3)c2)cc1 [Compound 23, Methyl 3′-(2-(2-(methylthio)nicotinamido)thiazol-4-yl)-[1,1′-biphenyl]-4-carboxylate]	> 40	0.822	8.69
CC(C)(C)c1ccc(C(=O)Nc2nc(-c3cccc(Nc4ccc(C#N)cc4)c3)cs2)nc1 [Compound 41, 5-(Tert-Butyl)-N-(4-(3-((4-cyanophenyl)amino)phenyl)thiazol-2-yl)picolinamide]	> 40	> 10	0.82
N#Cc1ccc(-c2cccc(-c3csc(NC(=O)c4cccnc4SC(F)F)n3)c2)cc1 [Compound 6, N-(4-(4′-Cyano-[1,1′-biphenyl]-3-yl)thiazol-2-yl)-2-((difluoromethyl)thio)nicotinamide]	> 30		7.6
CSc1ncccc1C(=O)Nc1nc(-c2cccc(N3CCNCC3)c2)cs1 [Compound 31, 2-(Methylthio)-N-(4-(3-(piperazin-1-yl)phenyl)thiazol-2-yl)nicotinamide]	> 30	9.1	8.69
N#Cc1ccc(-c2cccc(-c3csc(NC(=O)c4cccnc4C(F)(F)F)n3)c2)cc1 [Compound 7, N-(4-(4′-Cyano-[1,1′-biphenyl]-3-yl)thiazol-2-yl)-2-(trifluoromethyl)nicotinamide]	8.07		5.09
CSc1ncccc1C(=O)Nc1nc(-c2cc(Nc3ccc(C#N)cc3)cc(N3CCOCC3)c2)cs1 [Compound 47, N-(4-(3-((4-cyanophenyl)amino)-5-morpholinophenyl)thiazol-2-yl)-2-(methylthio)nicotinamide]	> 40	0.1	5.14
CSc1ncccc1C(=O)Nc1nc(-c2cc(F)cc(-c3ccc(C#N)cc3)c2)cs1 [Compound 19, N-(4-(4′-Cyano-5-fluoro-[1,1′-biphenyl]-3-yl)thiazol-2-yl)-2-(methylthio)nicotinamide]	> 30	0.19	6.1
COC(=O)c1cc(-c2ccc(C#N)cc2)cc(-c2csc(NC(=O)c3cccnc3SC)n2)c1 [Compound 20, Methyl 4′-cyano-5-(2-(2-(methylthio)nicotinamido)thiazol-4-yl)-[1,1′-biphenyl]-3-carboxylate]	17.6		3.23
CSc1ncccc1C(=O)Nc1nc(-c2cccc(Nc3ccc(C#N)cc3)c2)cs1 [Compound 37, N-(4-(3-((4-Cyanophenyl)amino)phenyl)thiazol-2-yl)-2-(methylthio)nicotinamide]	> 40	0.45	8.68
CC(C)(C)c1cnc(C(=O)Nc2nc(-c3cccc(-c4ccc(C#N)cc4)c3)cs2)nc1 [Compound 8, 5-(Tert-butyl)-N-(4-(4′-cyano-[1,1′-biphenyl]-3-yl)thiazol-2-yl)pyrimidine-2-carboxamide]	> 40		< 1
COc1ccc(-c2ccc(C#N)cc2)cc1-c1csc(NC(=O)c2cccnc2SC)n1 [Compound 18, N-(4-(4′-Cyano-4-methoxy-[1,1′-biphenyl]-3-yl)thiazol-2-yl)-2-(methylthio)nicotinamide]	> 40		1.73
CSc1ncccc1C(=O)Nc1nc(-c2cncc(-c3ccc(C#N)cc3)c2)cs1 [Compound 12, N-(4-(5-(4-Cyanophenyl)pyridin-3-yl)thiazol-2-yl)-2-(methylthio)nicotinamide]	> 40		< 1
CSc1ncccc1C(=O)Nc1nc(-c2cccc(-c3ccc(C(N)=O)cc3)c2)cs1 [Compound 25, N-(4-(4′-Carbamoyl-[1,1′-biphenyl]-3-yl)thiazol-2-yl)-2-(methylthio)nicotinamide]	17.9	0.21	2.43
COC1CCC(C(=O)Nc2nc(-c3cccc(Nc4ccc(C#N)cc4)c3)cs2)CC1 (stereo not drawn) [Compound 50, N-(4-(3-((4-cyanophenyl)amino)phenyl)thiazol-2-yl)-4-methoxycyclohexane-1-carboxamide]	12.4	0.1	4.53
CSc1ncccc1C(=O)Nc1nc(-c2cccc(Nc3ccc(C#N)cn3)c2)cs1 [Compound 51, N-(4-(3-((5-cyanopyridin-2-yl)amino)phenyl)thiazol-2-yl)-2-(methylthio)nicotinamide]	> 40	4.84	2.16
CSc1ncccc1C(=O)Nc1nc(-c2cccc(-c3ccc(C(=O)O)cc3)c2)cs1 [Compound 24, 3′-(2-(2-(Methylthio)nicotinamido)thiazol-4-yl)-[1,1′-biphenyl]-4-carboxylic acid]	> 40		1.49
